Test results: patent publication US20230398130A1, “METHODS AND COMPOSITIONS FOR DIFFERENTIATING STEM CELLS” (Massachusetts Institute of Technology, priority 2020, published 2023)

What was measured:
[1] = tested on: ISC-enriched organoids; assay: Primary screen, 384-well 2.5-D organoid differentiation (ENR+CD, 6 days): basal lysozyme secretion (LYZ.NS); assay type: cell-based, murine; conditions: for Dose.FC.LYZ.NS: FC vs plate median; for Z.LYZ.NS: standard z score; for SSMD.LYZ.NS: strictly standardized mean difference; for Dose.FC.LYZ.NS (log 2 fold change, basal lysozyme secretion) / Dose.FC.LYZ.NS (log 2 fold change): vs plate median
Source text: (§1) High-throughput screening.

[2] = tested on: ISC-enriched organoids; assay: Primary screen, 384-well 2.5-D organoid differentiation (ENR+CD, 6 days, Target Selective Inhibitor Library, vs whole-plate median): ATP (CellTiter-Glo 3D, CTG); conditions: for Dose.FC.CTG: FC vs plate median; for Z.CTG: standard z score; for SSMD.CTG: strictly standardized mean difference; for Dose.FC.CTG (log 2 fold change, ATP) / Dose.FC.CTG (log 2 fold change): vs plate median
[3] = tested on: ISC-enriched organoids; assay: Primary screen, 384-well 2.5-D organoid differentiation (ENR+CD, 6 days): carbachol-induced lysozyme secretion (LYZ.S); assay type: cell-based, murine; conditions: for Dose.FC.LYZ.S / Z.LYZ.S / SSMD.LYZ.S / Dose.FC.LYZ.S (log 2 fold change): primary screen; for Dose.FC.LYZ.S: FC vs plate median; for Z.LYZ.S: standard z score; for SSMD.LYZ.S: strictly standardized mean difference; for Dose.FC.LYZ.S (log 2 fold change, carbachol-induced lysozyme secretion) / Dose.FC.LYZ.S (log 2 fold change): vs plate median
Source text: as §1

[4] = primary screen, 1st of the 4 dose lines of the treatment (dose not given)
[5] = primary screen, 2nd of the 4 dose lines of the treatment (dose not given)
[6] = primary screen, 3rd of the 4 dose lines of the treatment (dose not given)
[7] = primary screen, 4th of the 4 dose lines of the treatment (dose not given)
[8] = 1st of the 4 dose lines of the treatment (dose not given)
[9] = 2nd of the 4 dose lines of the treatment (dose not given)
[10] = 3rd of the 4 dose lines of the treatment (dose not given)
[11] = 4th of the 4 dose lines of the treatment (dose not given)

SMILES: O=C(Nc1ccccc1)N1CCN(c2nc(-c3ccccc3)ns2)CC1 [JNJ-1661010]
- Dose.FC.LYZ.NS ([1]; Dose 0.08 uM, primary screen): 0.122 log 2 fold change
- Z.LYZ.NS ([1]; Dose 0.08 uM, primary screen): 1.066
- Dose.FC.LYZ.NS ([1]; Dose 0.40 uM, primary screen): 0.075 log 2 fold change
- Z.LYZ.NS ([1]; Dose 0.40 uM, primary screen): 0.653
- Dose.FC.LYZ.NS ([1]; Dose 2.00 uM, primary screen): 0.103 log 2 fold change
- Z.LYZ.NS ([1]; Dose 2.00 uM, primary screen): 0.897
- Dose.FC.LYZ.NS ([1]; Dose 10.00 uM, primary screen): 0.047 log 2 fold change
- Z.LYZ.NS ([1]; Dose 10.00 uM, primary screen): 0.406
- SSMD.LYZ.NS [1, 4]: 0.805
- SSMD.LYZ.NS [1, 5]: 0.332
- SSMD.LYZ.NS [1, 6]: 0.332
- SSMD.LYZ.NS [1, 7]: 0.237
- Dose.FC.CTG ([2]; Dose 0.08 uM, primary screen): −0.094 log 2 fold change
- Z.CTG ([2]; Dose 0.08 uM, primary screen): −0.225
- Dose.FC.CTG ([2]; Dose 0.40 uM, primary screen): −0.262 log 2 fold change
- Z.CTG ([2]; Dose 0.40 uM, primary screen): −0.625
- Dose.FC.CTG ([2]; Dose 2.00 uM, primary screen): −0.055 log 2 fold change
- Z.CTG ([2]; Dose 2.00 uM, primary screen): −0.131
- Dose.FC.CTG ([2]; Dose 10.00 uM, primary screen): −0.145 log 2 fold change
- Z.CTG ([2]; Dose 10.00 uM, primary screen): −0.346
- SSMD.CTG [2, 4]: −0.169
- SSMD.CTG [2, 5]: −0.659
- SSMD.CTG [2, 6]: −0.113
- SSMD.CTG [2, 7]: −0.309
- Dose.FC.LYZ.S ([3]; Dose 0.08 uM): 0.135 log 2 fold change
- Dose.FC.LYZ.S ([3]; Dose 0.40 uM): 0.041 log 2 fold change
- Dose.FC.LYZ.S ([3]; Dose 2.00 uM): −0.063 log 2 fold change
- Dose.FC.LYZ.S ([3]; Dose 10.00 uM): −0.068 log 2 fold change
- Z.LYZ.S [3, 8]: 0.873
- Z.LYZ.S [3, 9]: 0.263
- Z.LYZ.S [3, 10]: −0.408
- Z.LYZ.S [3, 11]: −0.441
- SSMD.LYZ.S [3, 8]: 0.612
- SSMD.LYZ.S [3, 9]: 0.250
- SSMD.LYZ.S [3, 10]: −0.454
- SSMD.LYZ.S [3, 11]: −0.449

SMILES: O=C(NCc1ccccc1)c1csc(Nc2ccncn2)n1 [Thiazovivin]
- Z.LYZ.NS (standard z score) ([1]; dose 0.08 uM): 0.780
- Dose.FC.LYZ.NS (log 2 fold change, basal lysozyme secretion) ([1]; dose 0.08 uM): 0.090
- Z.LYZ.NS (standard z score) ([1]; dose 0.40 uM): 0.611
- Dose.FC.LYZ.NS (log 2 fold change, basal lysozyme secretion) ([1]; dose 0.40 uM): 0.070
- Z.LYZ.NS (standard z score) ([1]; dose 2.00 uM): 0.205
- Dose.FC.LYZ.NS (log 2 fold change, basal lysozyme secretion) ([1]; dose 2.00 uM): 0.024
- Z.LYZ.NS (standard z score) ([1]; dose 10.00 uM): −0.605
- Dose.FC.LYZ.NS (log 2 fold change, basal lysozyme secretion) ([1]; dose 10.00 uM): −0.069
- Z.CTG (standard z score) ([2]; dose 0.08 uM): 0.337
- Dose.FC.CTG (log 2 fold change, ATP) ([2]; dose 0.08 uM): 0.141
- Z.CTG (standard z score) ([2]; dose 0.40 uM): 0.271
- Dose.FC.CTG (log 2 fold change, ATP) ([2]; dose 0.40 uM): 0.113
- Z.CTG (standard z score) ([2]; dose 2.00 uM): 0.746
- Dose.FC.CTG (log 2 fold change, ATP) ([2]; dose 2.00 uM): 0.312
- Z.CTG (standard z score) ([2]; dose 10.00 uM): 0.451
- Dose.FC.CTG (log 2 fold change, ATP) ([2]; dose 10.00 uM): 0.189
- Dose.FC.LYZ.S (log 2 fold change, carbachol-induced lysozyme secretion) ([3]; dose 0.08 uM): 0.142
- Dose.FC.LYZ.S (log 2 fold change, carbachol-induced lysozyme secretion) ([3]; dose 0.40 uM): 0.060
- Dose.FC.LYZ.S (log 2 fold change, carbachol-induced lysozyme secretion) ([3]; dose 2.00 uM): 0.064
- Dose.FC.LYZ.S (log 2 fold change, carbachol-induced lysozyme secretion) ([3]; dose 10.00 uM): 0.037

SMILES: COCC[n+]1c2c(n(Cc3cnccn3)c1C)C(=O)c1ccccc1C2=O.[Br-] [YM155 (Sepantronium Bromide)]
- Z.LYZ.NS (standard z score) ([1]; dose 0.08 uM): 0.995
- Dose.FC.LYZ.NS (log 2 fold change, basal lysozyme secretion) ([1]; dose 0.08 uM): 0.114
- Z.LYZ.NS (standard z score) ([1]; dose 0.40 uM): −0.266
- Dose.FC.LYZ.NS (log 2 fold change, basal lysozyme secretion) ([1]; dose 0.40 uM): −0.031
- Z.LYZ.NS (standard z score) ([1]; dose 2.00 uM): −0.714
- Dose.FC.LYZ.NS (log 2 fold change, basal lysozyme secretion) ([1]; dose 2.00 uM): −0.082
- Z.LYZ.NS (standard z score) ([1]; dose 10.00 uM): −0.839
- Dose.FC.LYZ.NS (log 2 fold change, basal lysozyme secretion) ([1]; dose 10.00 uM): −0.096
- Z.CTG (standard z score) ([2]; dose 0.08 uM): 0.531
- Dose.FC.CTG (log 2 fold change, ATP) ([2]; dose 0.08 uM): 0.222
- Z.CTG (standard z score) ([2]; dose 0.40 uM): −0.198
- Dose.FC.CTG (log 2 fold change, ATP) ([2]; dose 0.40 uM): −0.083
- Z.CTG (standard z score) ([2]; dose 2.00 uM): −1.100
- Dose.FC.CTG (log 2 fold change, ATP) ([2]; dose 2.00 uM): −0.460
- Z.CTG (standard z score) ([2]; dose 10.00 uM): −2.316
- Dose.FC.CTG (log 2 fold change, ATP) ([2]; dose 10.00 uM): −0.970
- Dose.FC.LYZ.S (log 2 fold change, carbachol-induced lysozyme secretion) ([3]; dose 0.08 uM): 0.172
- Dose.FC.LYZ.S (log 2 fold change, carbachol-induced lysozyme secretion) ([3]; dose 0.40 uM): −0.039
- Dose.FC.LYZ.S (log 2 fold change, carbachol-induced lysozyme secretion) ([3]; dose 2.00 uM): −0.137
- Dose.FC.LYZ.S (log 2 fold change, carbachol-induced lysozyme secretion) ([3]; dose 10.00 uM): −0.210

SMILES: CC(C)[C@H](O)C(=O)N[C@@H](C)C(=O)N[C@@H]1C(=O)N(C)CCc2ccccc21 [Semagacestat (LY450139)]
- Z.LYZ.NS (standard z score) ([1]; Dose 0.08 uM, primary screen): 0.151
- Dose.FC.LYZ.NS (log 2 fold change) ([1]; Dose 0.08 uM, primary screen): 0.017
- Z.LYZ.NS (standard z score) ([1]; Dose 0.40 uM, primary screen): −0.181
- Dose.FC.LYZ.NS (log 2 fold change) ([1]; Dose 0.40 uM, primary screen): −0.021
- Z.LYZ.NS (standard z score) ([1]; Dose 2.00 uM, primary screen): −0.704
- Dose.FC.LYZ.NS (log 2 fold change) ([1]; Dose 2.00 uM, primary screen): −0.081
- Z.LYZ.NS (standard z score) ([1]; Dose 10.00 uM, primary screen): −0.942
- Dose.FC.LYZ.NS (log 2 fold change) ([1]; Dose 10.00 uM, primary screen): −0.108
- Z.CTG (standard z score) ([2]; Dose 0.08 uM, primary screen): 0.338
- Dose.FC.CTG (log 2 fold change) ([2]; Dose 0.08 uM, primary screen): 0.141
- Z.CTG (standard z score) ([2]; Dose 0.40 uM, primary screen): −0.494
- Dose.FC.CTG (log 2 fold change) ([2]; Dose 0.40 uM, primary screen): −0.207
- Z.CTG (standard z score) ([2]; Dose 2.00 uM, primary screen): −0.306
- Dose.FC.CTG (log 2 fold change) ([2]; Dose 2.00 uM, primary screen): −0.128
- Z.CTG (standard z score) ([2]; Dose 10.00 uM, primary screen): −2.045
- Dose.FC.CTG (log 2 fold change) ([2]; Dose 10.00 uM, primary screen): −0.856
- Dose.FC.LYZ.S (log 2 fold change) ([3]; Dose 0.08 uM): −0.014
- Dose.FC.LYZ.S (log 2 fold change) ([3]; Dose 0.40 uM): −0.006
- Dose.FC.LYZ.S (log 2 fold change) ([3]; Dose 2.00 uM): −0.081
- Dose.FC.LYZ.S (log 2 fold change) ([3]; Dose 10.00 uM): −0.162
